A melting point compilation (Tetko et al.; mined from patent text by program, amines drawn as free bases though some values may be those of a salt)

melting point [°C] | Structure (SMILES)
87 to 92 | COc1c(CC(=O)O)cccc1Oc1ccccc1Cl
147 to 148 | COC(=O)C=C(C)C=CC1(O)C(C)=CC(=O)c2ccccc21 (configuration not stated)
153 to 154 | COc1ccc(NC2=NN(c3ccccc3)CC2)cc1
117 to 120 | Cc1nnsc1C(=O)Nc1ccc(-n2nc(C3CC3)cc2C2CC2)cc1
247 | CC1Cc2nc(-c3ccccc3)[nH]c(=O)c2CC1S(=O)(=O)c1ccccc1 (configuration not stated)
126 to 128 | O=C(CN1CCC(Cc2ccccc2)CC1)Nc1ccc([N+](=O)[O-])cc1
93 to 94 | COC1(c2ccc(Sc3ccc(C(=O)c4c(F)c(F)c(F)c(F)c4F)cc3)s2)CCOCC1
118 | COc1cc2c(cc1OCc1ccccc1)C(C1(c3ccccc3OC)CC1)N(C)CC2 (configuration not stated)
237 | CC1CCc2nc(-c3ccccc3)[nH]c(=O)c2C1 (configuration not stated)
197 to 200 | COC(=O)c1cc2ccccc2n1C1=CC(C)(C)Oc2ccc(C#N)cc21
127 to 129 | CC1CCN(C(=O)[C@H](CCCCNc2ccccn2)NS(=O)(=O)c2ccc3ccccc3c2)CC1
136 to 137 | C=CCON=C(CCC)C1=C(O)CC(c2ccc(OC)c(NC(C)=O)c2)CC1=O (configuration not stated)
188 to 190 | N#CCCNC(=O)c1n[nH]cc1NC(=O)c1cccc(C(F)(F)F)c1
145 to 149 | COc1cc(C(=O)N2Cc3ccc(C(=O)NCc4ccc(OC(F)(F)F)cc4)n3Cc3ccccc32)ccc1-c1ccccc1C
103 | COc1ccc(C(=O)c2ccccc2)cc1COc1ccc(Cl)cc1
115 to 116 | CC(C)(C)OC(=O)CNC(=O)c1sc(Nc2ccccc2)c2c1CCc1cnoc1-2
103 to 104 | COC(=O)c1ccc([C@H]2CCN(Cc3ccccc3)C[C@@H]2O)cc1 (racemic)
194 to 195 | Cn1cc2c3c(cccc31)C(=O)NCC2
192 to 194 | CC(C)(O)CCOc1ccc(/C=C/C(=O)O)c(Oc2ncc(C(F)(F)F)cc2Cl)c1
184 to 186 | CCOCc1nc2c(N)nc3ccccc3c2n1CC1(O)CCN(C(=O)Nc2ccccc2)CC1
> 225 | Cc1cc(-c2c3ccccc3c(Br)c3sc(C)c(C)c23)cc(C)c1OS(=O)(=O)c1ccc(C(=O)O)c(O)c1
175 to 176 | CN1CCN(c2cccc3c2C[C@H](NC(=O)c2csc(-c4ccccc4)n2)CC3)CC1
200 to 202 | O=C(c1ccccc1O)c1ccc(O)c(Cl)c1Cl
115 to 116 | COc1c(Cl)cc(NC(=O)OC(C)(C)C)cc1Cl
88 | Cc1ccccc1COCn1cc(Cl)cnc1=O

melting point [°C] | Structure (SMILES)
164 to 167 | Nc1ncc([N+](=O)[O-])c(OCc2ccccc2)n1
98 to 99 | COC1CC(C)(C)C(O)C(OC(=O)c2ccccc2)C=C1C (configuration not stated)
195 to 202 | O=C(N[C@@H](CS(=O)(=O)c1ccc(Oc2ccccc2)cc1)C(=O)NO)OCc1ccccc1
200 to 202 | Cc1c(NC(=O)c2ccc(-c3ccc(OC(F)(F)F)cc3)cc2)ccc2cc(CN3CCCC3)cnc12
169 | CCOC(=O)N1CCc2nc3c(Cl)cccc3c(C)c2CC1
102 to 105 | COc1ccc2c(c1)c(Cc1cc(=O)n(C3CCCCC3)[nH]1)c(C)n2Cc1ccccc1
174 | CC(=O)NCC1=C(n2ccccc2=O)c2cc(C(F)(F)F)ccc2OC1(C)C
112 to 117 | OCCCCn1ccc(NC(=S)Nc2ccccc2)n1
143 to 144 | COc1ccc(C2(C(=O)Oc3ccc(C(=O)NO)cc3)CCCC2)cc1
119 to 121 | COc1ccc(NC(C)(C)C(=O)O)c([N+](=O)[O-])c1
191 to 192 | O=C(O)c1ccc(NCCCc2ccc(Cl)cc2)cc1
167 to 169 | Cn1c(=O)n(OCc2ccccc2)c(=O)c2cc(F)c(F)cc21
212 to 213 | CSC(=S)N1Cc2c(c3ccccc3n2C)CC1C(=O)O (configuration not stated)
145 to 146 | O=C(O)CC1Cc2ccccc2NC1=O (configuration not stated)
241 to 242 | O=C(CCC(=O)c1ccc(CCNS(=O)(=O)c2ccccc2)cc1)Nc1nnn[nH]1
229 | CCOc1ccc2cc(-c3nc(-c4ccccc4)no3)c(=O)oc2c1
134 | Fc1ccc2c(c1)CCc1cccnc1C2=C1CCNCC1
193 | CC(C(N)=O)c1ccc2nc(-c3ccccc3)oc2c1 (configuration not stated)
208 to 214 | CCOC(=O)c1cnc2sc(C(=O)Cc3ccccc3)c(C)c2c1O
246 to 248 | COc1ccc(-c2csc(Nc3ccc(C)cn3)n2)cc1
180 to 182 | COc1ccc(-c2ccc(C(N)=O)cc2)cc1OCCCCc1ccccc1
163 to 165 | CC(C)(NC(=O)c1nnc2ccc(OCCCN3CCC(OC(c4ccccc4)c4ccccc4)CC3)nn12)C(=O)O
138 to 139 | Cc1c(Cc2ccc(C(C)C)cc2)c2c(c(C)c1NC(=O)CC(C)(C)C)C(N(C)C)C(C)(C)O2 (configuration not stated)
252 | Cc1c(-n2c(C)ccc2C)cc(CC(C#N)=CNc2ccccc2)cc1-n1c(C)ccc1C
170 to 172 | CCOC(=O)c1cccc(-c2nc(=O)c3ccccc3s2)n1

More lines, now with the values behind:

Structure (SMILES) | melting point [°C]
CO/N=C/c1ccc2c(c1Cn1ccnc1)OCO2 | 102
COCCOCCCCC(=O)c1ccc(Br)cc1 | 25.5 to 26.5
c1csc(Cn2ccnc2C2=NCCN2)c1 | 101 to 103
O=c1[nH]c(=O)c2c1c1oc3ccccc3oc1c1[nH]c3cc(O)ccc3c12 | > 340
CC(=O)Oc1ccc(-c2ccc(C(C)O)cc2)cc1 (configuration not stated) | 142 to 144
CC(C)(C)c1ccc(CN2CCNC2=O)cc1 | 122 to 127
CSc1ncc(C=O)c(NC2CC2)n1 | 69.5 to 70
S=C(Nc1cccc2c1[nH]c1ccccc12)SCc1ccccc1 | 66 to 68
CC(C)N(Cc1ccc(C(F)(F)F)cc1)C(=O)C(Cl)Cl | 92 to 93
Cc1c(CCCC=CC(=O)O)cccc1Cc1ccc(Cl)cc1 | 115
S=C1CN=C(c2ccccc2Cl)c2cc(Cl)ccc2N1 | 251 to 253
O=c1[nH]nc2n1-c1ccc(Cl)nc1C(c1ccccc1)=NC2 | 222 to 224
CCCN(CCC)C(=O)n1cnc(S(=O)(=O)CC)n1 | 44 to 45
Cc1cn(C(c2ccccc2)(c2ccccc2)c2ccccc2)cn1 | 214 to 216
C=CCOc1ccc(C[C@@H](NC(C)=O)C(=O)O)cc1 | 75
O=C(c1ccc(Cl)cc1)C1(n2cnc(Cl)n2)CC1 | 85
O=C1[C@H]2CCC[C@H]2N(C(=O)CN2CCN(c3ccccc3)CC2)c2ccccc2N1Cc1ccccc1 (relative stereo) | 164 to 165
Cn1nc(C(F)(F)F)cc1Oc1cc(OC(F)F)cnn1 | 86 to 88
CCOc1ccccc1C=[N+]([O-])C(C)C | 59.4
CCOC(=O)c1cn(CC)c2nc(N3CCN(CCO)CC3)ncc2c1=O | 172
C#CCOc1cc(-n2nc(C)ccc2=O)c(F)cc1C#N | 180
CCC(CC)(CO)c1cc(Cl)nnc1Cl | 85 to 87
CC(C)C[C@@H](C=O)NC(=O)[C@H](Cc1c[nH]cn1)NC(=O)[C@H](Cc1ccc2ccccc2c1)NC(=O)OCc1ccccc1 | 110 to 112
Cc1ccc2c(c1)c(=O)[nH]c1c2c2ccccc2n1C | > 310
COC(=O)C(F)(F)CC(C)C1CCC2C3CC=C4CC(OC(C)=O)CCC4(C)C3CCC12C (configuration not stated) | 132
CCCCC(=O)OCC(=O)C12OCOC1CC1C3CCC4=CC(=O)C=CC4(C)C3C(O)CC12C (configuration not stated) | 121 to 122

Structure (SMILES) | melting point [°C]
O=C(CCN1CCOCC1)Nc1ccc2c(=O)c3ccc(NC(=O)CCN4CCOCC4)cc3[nH]c2c1 | > 320
Cc1cc2ncnn2nc1OCC(C)(C)CCS(N)(=O)=O | 214 to 215
COC(=O)CCCc1cc2nc(Cl)ccc2n1S(=O)(=O)c1cccc(Cl)c1 | 107
O=C1NCCc2ccc(O)cc21 | 201 to 203
CCC(C)(C)N=C(NC#N)Nc1cc(Br)cc(Br)c1 | 168 to 170
Nc1sccc1C(=O)c1cccc(C(F)(F)F)c1 | 143 to 145
FC(F)(F)c1cccc(C(NC2=NCCO2)C(F)(F)F)c1 (configuration not stated) | 129 to 132
COc1cccc(C(CN(C)C)c2nnc3n2-c2ccc(Cl)cc2C(c2ccccc2)=NC3)c1 (configuration not stated) | 139 to 140
CCCOc1ccc(CC(C)=O)cc1S(N)(=O)=O | 106 to 107
COC(C)(CN(c1c(C)cccc1Cl)S(C)(=O)=O)OC | 84
CCOC(=O)CCCNC(=O)c1cc(Br)no1 | 72 to 73
CCCCCCCCCCCCCCCCCCOc1cccc(C(=O)O)c1OCCCOc1ccc(OCc2ccccc2)cc1 | 75 to 76
CC(C)=C1C(=O)N(c2cc(F)c(C#N)cc2F)C(=O)C1=C(C)C | 144
COc1ccc(-c2ccc(Cl)nn2)cc1Br | 226 to 228
Cn1nc(N)c2cc3ccc(O)cc3nc21 | 288 to 290
CC1N=C(c2ccccc2)c2cc(Cl)ccc2NC1=O (configuration not stated) | 224
CC(C)(Oc1ccc(C#N)cc1)C(O)Cc1ccncn1 (configuration not stated) | 96 to 98
CCN(CC)c1ccc(C2(c3ccc(N(C)C)cc3)OC(=O)c3ccccc32)c(N(CC)CC)c1 (configuration not stated) | 117 to 119
CCS(=O)(=O)Nc1cccc(C(=C(C)C)c2c[nH]cn2)c1 | 152 to 155
Clc1ccc(-c2cc3nccc(C4CC4)n3n2)cc1 | 137 to 138
Cc1cn2ccnc(Cl)c2n1 | 128 to 130
CCCC(=O)OCC1OC(n2cnc3c(OC)nc(N)nc32)C(O)C1O (configuration not stated) | 105
Cc1c(NC(=O)CC(C)(C)C)cc2c(c1C)OC(C)(C)C2=O | 175 to 176
CCCNC1CCC(O)CC1 (configuration not stated) | 20
Cc1ccc(N2CCN(CCCN3c4cccc5cccc(c45)S3(=O)=O)CC2)cc1 | 136
CNC(=O)[C@@H](C[C@H](O)[C@H](CC1CCCCC1)NC(=O)OC(C)(C)C)C1(O)CCCCC1 | 175 to 177
